We go through one molecule from patent US20220133642A1, “TOPICAL FILM-FORMING SPRAY” (GRACE THERAPEUTICS INC., priority 2015, published 2022).

Counter-ions that a name gives are not always drawn.

This data set is described as follows: Solubility study for drug saturation in spray vehicle. The class given is physicochemical. The settings on record: 16 mg of drug; after standing. The procedure: Solubility studies to find out concentration at which the drug is present at saturation levels were performed as follows: The drug (bupivacaine hydrochloride 2, 4, 8, 10, 12 & 16 mg) was added to, propylene glycol, oleyl alcohol and menthol in ethanol under stirring and mixing till clear solution is formed. The film-forming polymer in the clear drug solution was added while stirring till polymer dissolves or hydrates completely.

`CCCCN1CCCCC1C(=O)Nc1c(C)cccc1C` (stereo not shown) [bupivacaine hydrochloride]: the “appearance of drug solution” value is recorded as “precipitated out from clear solution after standing”.
